Experimental data published in ChEMBL document CHEMBL3112424, “Discovery and optimization of pyrimidone indoline amide PI3Kβ inhibitors for the treatment of phosphatase and tensin homologue (PTEN)-deficient cancers” (J Med Chem, 2014).
≈ marks a conversion by molar mass, not a printed value.

Legend:
[1] = Cmax in nude rat at 3 mg/kg, iv; format: ADME, organism-based; parameters: dose 3 mg/kg, route intravenous; settings: in vivo
[2] = biological target: T1, Phosphatidylinositol 4,5-bisphosphate 3-kinase catalytic subunit beta isoform (Homo sapiens, UniProt P42338); assay: Inhibition of PI3Kbeta-mediated Akt phosphorylation at S473 in BRAF-V600E/PTEN-deficient human UACC62 cells; format: cell-based, UACC-62
Target sequence in this assay (P42338 whole entry, canonical isoform): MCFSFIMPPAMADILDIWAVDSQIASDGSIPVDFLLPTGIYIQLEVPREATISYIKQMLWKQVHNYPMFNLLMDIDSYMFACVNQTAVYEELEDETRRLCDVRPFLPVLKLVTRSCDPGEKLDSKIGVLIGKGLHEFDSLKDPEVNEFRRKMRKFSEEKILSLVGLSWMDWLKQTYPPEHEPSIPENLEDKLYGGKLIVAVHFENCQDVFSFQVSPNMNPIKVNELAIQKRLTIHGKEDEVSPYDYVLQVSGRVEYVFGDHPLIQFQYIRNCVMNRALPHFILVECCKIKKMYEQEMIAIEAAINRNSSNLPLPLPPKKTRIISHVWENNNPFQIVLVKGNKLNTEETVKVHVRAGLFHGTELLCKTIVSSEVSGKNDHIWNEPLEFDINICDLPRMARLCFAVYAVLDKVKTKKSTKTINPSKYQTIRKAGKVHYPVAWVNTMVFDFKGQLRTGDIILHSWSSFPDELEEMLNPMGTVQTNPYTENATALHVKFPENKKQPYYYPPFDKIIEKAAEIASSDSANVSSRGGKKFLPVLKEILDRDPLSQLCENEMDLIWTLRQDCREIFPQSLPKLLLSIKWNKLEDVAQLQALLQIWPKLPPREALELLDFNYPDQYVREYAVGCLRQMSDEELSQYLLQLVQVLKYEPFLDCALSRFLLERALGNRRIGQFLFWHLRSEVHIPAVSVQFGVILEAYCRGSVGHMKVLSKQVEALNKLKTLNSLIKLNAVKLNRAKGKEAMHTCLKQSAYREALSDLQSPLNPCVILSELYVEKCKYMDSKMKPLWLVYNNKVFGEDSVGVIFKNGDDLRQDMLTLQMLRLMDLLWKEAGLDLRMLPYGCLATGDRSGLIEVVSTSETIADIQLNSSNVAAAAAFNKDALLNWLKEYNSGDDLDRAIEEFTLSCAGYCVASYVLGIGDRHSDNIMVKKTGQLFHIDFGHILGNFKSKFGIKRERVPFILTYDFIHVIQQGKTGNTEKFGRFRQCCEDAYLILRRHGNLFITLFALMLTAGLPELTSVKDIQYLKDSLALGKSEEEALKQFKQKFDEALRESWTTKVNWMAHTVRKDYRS

[3] = biological target: Phosphatidylinositol 4,5-bisphosphate 3-kinase catalytic subunit gamma isoform (Homo sapiens, UniProt P48736); assay: Inhibition of C-terminal ploy-His-tagged human PI3Kgamma expressed in baculovirus-infected sf9 cells using PI(4,5)P2 as substrate after 15 mins by HTRF assay
[4] = AUC (infinity) in nude rat at 3 mg/kg, iv; format: ADME, organism-based; parameters: time infinity, dose 3 mg/kg, route intravenous; settings: plasma
[5] = Half life in nude rat at 3 mg/kg, iv; format: ADME, organism-based; parameters: dose 3 mg/kg, route intravenous; settings: in vivo
[6] = Cmax in Beagle dog at 3 mg/kg, iv; format: ADME, organism-based, Canis lupus familiaris; parameters: dose 3 mg/kg, route intravenous; settings: in vivo
[7] = biological target: T1, Phosphatidylinositol 4,5-bisphosphate 3-kinase catalytic subunit beta isoform; assay: Inhibition of N-terminal ploy-His-tagged human PI3Kbeta expressed in baculovirus-infected sf21 cells using PI(4,5)P2 as substrate after 15 mins by HTRF assay
Target sequence in this assay (P42338 whole entry, canonical isoform): as above

[8] = Half life in nude rat at 10 mg/kg, po; format: ADME, organism-based; parameters: dose 10 mg/kg, route oral; settings: in vivo
[9] = tested on: Mus musculus; assay: In vivo inhibition of PI3Kbeta in tumor of po dosed SCID mouse xenografted with BRAF-V600E/PTEN-deficient human UACC62 cells assessed as inhibition of Akt phosphorylation at S473; format: functional, organism-based; settings: UACC-62
[10] = AUC (infinity) in nude rat at 10 mg/kg, po; format: ADME, organism-based; parameters: time infinity, dose 10 mg/kg, route oral; settings: plasma
[11] = Plasma concentration in Balb/c mouse at 100 mg/kg, po measured for 12 hrs; format: ADME, organism-based; parameters: dose 100 mg/kg, route oral
[12] = biological target: Phosphatidylinositol 4-phosphate 3-kinase C2 domain-containing subunit beta (Homo sapiens, UniProt O00750); assay: Inhibition of PI3KC2beta (unknown origin)
[13] = tested on: Mus musculus; assay: In vivo inhibition of PI3Kbeta in tumor of po dosed SCID mouse xenografted with PTEN-deficient human PC3 cells assessed as inhibition of Akt phosphorylation at S473; format: functional, organism-based; settings: PC-3
[14] = Solubility of the compound in phosphate buffer at pH 7.4 by HPLC analysis; settings: buffer
[15] = Volume of distribution at steady state in Beagle dog at 3 mg/kg, iv; format: ADME, organism-based, Canis lupus familiaris; parameters: dose 3 mg/kg, route intravenous; settings: in vivo, read-out: Vdss
[16] = Clearance in Beagle dog at 3 mg/kg, iv; format: ADME, organism-based, Canis lupus familiaris; parameters: dose 3 mg/kg, route intravenous; settings: in vivo
[17] = Cmax in Balb/c mouse plasma at 3 mg/kg, iv by LC-MS/MS analysis; format: ADME, organism-based; parameters: dose 3 mg/kg, route intravenous
[18] = Tmax in nude rat at 10 mg/kg, po; format: ADME, organism-based; parameters: dose 10 mg/kg, route oral; settings: in vivo
[19] = biological target: Serine/threonine-protein kinase mTOR (Homo sapiens, UniProt P42345); assay: Inhibition of mTOR (unknown origin)
[20] = Plasma concentration in Balb/c mouse at 100 mg/kg, po measured for 5 hrs; format: ADME, organism-based; parameters: dose 100 mg/kg, route oral
[21] = Apparent terminal half life in Balb/c mouse plasma at 3 mg/kg, iv by LC-MS/MS analysis; format: ADME, organism-based; parameters: dose 3 mg/kg, route intravenous; settings: read-out: betat1/2(app) (converted)
[22] = AUC (infinity) in Balb/c mouse plasma at 10 mg/kg, po by LC-MS/MS analysis; format: ADME, organism-based; parameters: time infinity, dose 10 mg/kg, route oral
[23] = tested on: Mus musculus; assay: Toxicity in SCID mouse xenografted with BRAF-V600E/PTEN-deficient human UACC62 cells assessed as body weight loss at 150 mg/kg, po bid; format: organism-based, UACC-62; parameters: dose 150 mg/kg, route oral; settings: in vivo
[24] = Oral bioavailability in Balb/c mouse plasma at 10 mg/kg by LC-MS/MS analysis; format: ADME, organism-based
[25] = Oral bioavailability in Beagle dog at 10 mg/kg; format: ADME, organism-based, Canis lupus familiaris; settings: in vivo
[26] = Tmax in Beagle dog at 3 mg/kg, iv; format: ADME, organism-based, Canis lupus familiaris; parameters: dose 3 mg/kg, route intravenous; settings: in vivo
[27] = biological target: T1, Phosphatidylinositol 4,5-bisphosphate 3-kinase catalytic subunit beta isoform; settings: UACC-62
Target sequence in this assay (P42338 whole entry, looked up, canonical isoform): as the sequence (P42338 whole entry, canonical isoform) above

[28] = Apparent terminal half life in Balb/c mouse plasma at 10 mg/kg, po by LC-MS/MS analysis; format: ADME, organism-based; parameters: dose 10 mg/kg, route oral; settings: read-out: betat1/2(app) (converted)
[29] = Fraction unbound in SCID mouse plasma xenografted with PTEN-deficient human PC3 cells at 100 mg/kg, po; format: ADME, organism-based, PC-3; parameters: dose 100 mg/kg, route oral
[30] = biological target: T1, Phosphatidylinositol 4,5-bisphosphate 3-kinase catalytic subunit beta isoform; assay: Inhibition of PI3Kbeta-mediated Akt phosphorylation at S473 in PTEN-deficient human PC3 cells after 0.5 to 2 hrs by Immunoblotting assay; format: cell-based, PC-3
Target sequence in this assay (P42338 whole entry, canonical isoform): as above

[31] = tested on: Mus musculus; assay: Toxicity in SCID mouse xenografted with PTEN-deficient human PC3 cells at 150 mg/kg, po bid; format: organism-based, PC-3; parameters: dose 150 mg/kg, route oral; settings: in vivo
[32] = biological target: DNA-dependent protein kinase catalytic subunit (Homo sapiens, UniProt P78527); assay: Inhibition of DNA-PK (unknown origin)
[33] = AUC (infinity) in Balb/c mouse plasma at 100 mg/kg, po by LC-MS/MS analysis; format: ADME, organism-based; parameters: time infinity, dose 100 mg/kg, route oral
[34] = Cmax in Balb/c mouse plasma at 100 mg/kg, po by LC-MS/MS analysis; format: ADME, organism-based; parameters: dose 100 mg/kg, route oral
[35] = tested on: Mus musculus; assay: In vivo inhibition of PI3Kbeta in tumor of SCID mouse xenografted with BRAF-V600E/PTEN-deficient human UACC62 cells assessed as inhibition of Akt phosphorylation at S473 at 200 mg/kg, po up to 6 hrs; format: functional; settings: UACC-62, 6 h
[36] = AUC (infinity) in Beagle dog at 10 mg/kg, po; format: ADME, organism-based, Canis lupus familiaris; parameters: time infinity, dose 10 mg/kg, route oral; settings: plasma
[37] = Apparent terminal half life in Balb/c mouse plasma at 100 mg/kg, po by LC-MS/MS analysis; format: ADME, organism-based; parameters: dose 100 mg/kg, route oral; settings: read-out: betat1/2(app) (converted)
[38] = Apparent permeability in human Caco2 cells at 5 uM after 20 mins; settings: Caco-2
[39] = Plasma concentration in SCID mouse xenografted with PTEN-deficient human PC3 cells at 100 mg/kg, po after 4 hrs; format: ADME, organism-based, PC-3; parameters: dose 100 mg/kg, route oral
[40] = Cmax in nude rat at 10 mg/kg, po; format: ADME, organism-based; parameters: dose 10 mg/kg, route oral; settings: in vivo
[41] = biological target: Cytochrome P450 3A4 (Homo sapiens, UniProt P08684); assay: Inhibition of recombinant human CYP3A4
[42] = AUC (infinity) in Beagle dog at 3 mg/kg, iv; format: ADME, organism-based, Canis lupus familiaris; parameters: time infinity, dose 3 mg/kg, route intravenous; settings: plasma
[43] = Metabolic stability in human liver microsomes at 5 uM after 20 mins; settings: liver microsomes
[44] = Tmax in Balb/c mouse plasma at 10 mg/kg, po by LC-MS/MS analysis; format: ADME, organism-based; parameters: dose 10 mg/kg, route oral
[45] = tested on: Liver microsome; assay: Metabolic stability in dog liver microsomes; format: ADME, Canis lupus familiaris

Sequence of Phosphatidylinositol 4-phosphate 3-kinase C2 domain-containing subunit beta (O00750 whole entry, the tested form may be a part): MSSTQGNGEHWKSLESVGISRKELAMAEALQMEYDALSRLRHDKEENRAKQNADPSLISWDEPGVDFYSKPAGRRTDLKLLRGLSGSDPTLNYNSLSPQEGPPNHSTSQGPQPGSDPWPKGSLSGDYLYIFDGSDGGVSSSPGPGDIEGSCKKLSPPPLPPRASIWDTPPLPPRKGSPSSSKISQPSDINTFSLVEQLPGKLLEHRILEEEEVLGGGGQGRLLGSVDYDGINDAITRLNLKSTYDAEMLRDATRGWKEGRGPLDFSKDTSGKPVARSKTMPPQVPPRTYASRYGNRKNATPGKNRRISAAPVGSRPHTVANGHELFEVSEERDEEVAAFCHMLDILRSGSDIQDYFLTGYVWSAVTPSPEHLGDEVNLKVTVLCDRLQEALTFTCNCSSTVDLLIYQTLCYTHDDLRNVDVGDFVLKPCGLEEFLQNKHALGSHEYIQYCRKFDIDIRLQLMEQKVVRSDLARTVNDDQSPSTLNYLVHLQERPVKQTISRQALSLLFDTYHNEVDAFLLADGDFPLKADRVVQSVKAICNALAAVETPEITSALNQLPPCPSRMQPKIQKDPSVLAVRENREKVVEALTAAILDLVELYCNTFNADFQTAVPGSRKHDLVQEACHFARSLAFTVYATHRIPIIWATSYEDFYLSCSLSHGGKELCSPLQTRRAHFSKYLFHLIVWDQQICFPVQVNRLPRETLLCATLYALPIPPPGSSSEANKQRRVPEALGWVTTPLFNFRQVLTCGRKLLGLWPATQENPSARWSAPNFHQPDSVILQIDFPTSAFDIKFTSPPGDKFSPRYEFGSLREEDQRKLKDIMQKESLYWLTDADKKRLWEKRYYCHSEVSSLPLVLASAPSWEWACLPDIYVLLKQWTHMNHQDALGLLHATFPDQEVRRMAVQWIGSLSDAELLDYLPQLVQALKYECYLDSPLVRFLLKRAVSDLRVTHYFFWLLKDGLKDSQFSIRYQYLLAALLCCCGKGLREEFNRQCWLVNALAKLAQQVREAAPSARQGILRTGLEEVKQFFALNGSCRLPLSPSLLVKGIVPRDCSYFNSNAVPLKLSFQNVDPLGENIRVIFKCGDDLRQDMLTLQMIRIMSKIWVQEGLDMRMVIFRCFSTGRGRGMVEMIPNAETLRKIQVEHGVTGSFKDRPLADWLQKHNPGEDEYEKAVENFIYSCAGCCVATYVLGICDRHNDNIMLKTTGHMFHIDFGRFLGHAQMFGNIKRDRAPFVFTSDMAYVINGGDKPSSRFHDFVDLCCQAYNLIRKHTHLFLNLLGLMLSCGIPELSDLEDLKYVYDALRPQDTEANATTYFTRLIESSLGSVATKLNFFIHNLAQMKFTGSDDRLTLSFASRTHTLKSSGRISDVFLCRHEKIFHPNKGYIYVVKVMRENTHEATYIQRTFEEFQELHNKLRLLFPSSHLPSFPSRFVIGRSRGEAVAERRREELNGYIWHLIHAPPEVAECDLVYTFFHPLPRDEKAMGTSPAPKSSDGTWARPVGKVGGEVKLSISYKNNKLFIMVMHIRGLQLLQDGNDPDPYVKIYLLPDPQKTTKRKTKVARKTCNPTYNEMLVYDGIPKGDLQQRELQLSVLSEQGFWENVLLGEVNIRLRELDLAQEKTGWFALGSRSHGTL
Sequence of Phosphatidylinositol 4,5-bisphosphate 3-kinase catalytic subunit gamma isoform (P48736 whole entry, canonical isoform): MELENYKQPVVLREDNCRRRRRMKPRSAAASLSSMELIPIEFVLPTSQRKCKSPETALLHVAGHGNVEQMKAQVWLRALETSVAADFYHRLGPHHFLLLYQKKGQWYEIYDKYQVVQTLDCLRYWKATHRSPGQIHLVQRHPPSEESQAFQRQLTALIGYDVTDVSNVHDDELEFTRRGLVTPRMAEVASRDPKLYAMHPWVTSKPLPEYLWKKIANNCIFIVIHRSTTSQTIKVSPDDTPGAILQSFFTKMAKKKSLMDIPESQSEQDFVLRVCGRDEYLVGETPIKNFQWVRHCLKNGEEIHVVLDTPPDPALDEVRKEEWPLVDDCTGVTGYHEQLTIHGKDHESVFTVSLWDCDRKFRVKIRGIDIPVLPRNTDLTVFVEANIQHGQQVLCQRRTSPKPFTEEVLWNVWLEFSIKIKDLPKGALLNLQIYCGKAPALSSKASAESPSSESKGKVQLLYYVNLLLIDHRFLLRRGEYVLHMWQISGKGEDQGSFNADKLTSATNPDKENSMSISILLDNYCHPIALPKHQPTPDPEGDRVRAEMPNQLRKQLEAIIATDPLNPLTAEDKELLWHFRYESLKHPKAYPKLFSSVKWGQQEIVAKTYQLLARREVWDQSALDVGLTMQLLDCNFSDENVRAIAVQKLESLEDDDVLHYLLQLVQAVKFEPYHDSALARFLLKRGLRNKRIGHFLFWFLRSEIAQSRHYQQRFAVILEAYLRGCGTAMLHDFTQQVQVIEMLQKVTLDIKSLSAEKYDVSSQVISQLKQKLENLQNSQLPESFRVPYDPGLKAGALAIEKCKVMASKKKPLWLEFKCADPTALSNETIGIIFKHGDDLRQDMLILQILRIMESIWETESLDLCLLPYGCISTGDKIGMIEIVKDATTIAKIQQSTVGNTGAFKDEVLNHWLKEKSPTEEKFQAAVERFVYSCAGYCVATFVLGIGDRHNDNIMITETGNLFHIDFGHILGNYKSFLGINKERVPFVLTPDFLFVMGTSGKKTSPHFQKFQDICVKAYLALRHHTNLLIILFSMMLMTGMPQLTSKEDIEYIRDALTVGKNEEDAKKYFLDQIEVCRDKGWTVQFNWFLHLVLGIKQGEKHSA
Sequence of Cytochrome P450 3A4 (P08684 whole entry): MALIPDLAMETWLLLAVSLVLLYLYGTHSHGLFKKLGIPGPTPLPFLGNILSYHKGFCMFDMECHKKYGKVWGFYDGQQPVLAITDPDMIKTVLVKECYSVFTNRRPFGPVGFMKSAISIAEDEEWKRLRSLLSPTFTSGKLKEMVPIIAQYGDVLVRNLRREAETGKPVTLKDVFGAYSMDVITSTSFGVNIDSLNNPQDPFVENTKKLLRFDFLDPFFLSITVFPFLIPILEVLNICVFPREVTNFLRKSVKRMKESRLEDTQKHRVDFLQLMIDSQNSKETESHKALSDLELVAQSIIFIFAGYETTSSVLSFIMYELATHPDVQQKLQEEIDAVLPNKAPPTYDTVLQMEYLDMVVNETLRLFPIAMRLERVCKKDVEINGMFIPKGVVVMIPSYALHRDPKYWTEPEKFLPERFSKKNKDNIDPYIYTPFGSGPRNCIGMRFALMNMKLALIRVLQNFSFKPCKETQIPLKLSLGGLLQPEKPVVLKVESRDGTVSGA

Question: For `C[C@H]1Cc2ccccc2N1C(=O)Cc1nc(N2CCOCC2)cc(=O)[nH]1` [SAR-260301], which Cmax [1] is on record?
Answer: 1200 ng/mL

Question: What about the IC50 [2] of the same molecule?
Answer: 0.06 µM

Question: What about the IC50 [3] of the same molecule?
Answer: 10 µM

Question: And the AUC(0-inf) [4]?
Answer: 864 ng·h/mL

Question: And the half-life [5]?
Answer: 52.2 min

Question: And the Cmax [6]?
Answer: 4920 ng/mL

Question: And the IC50 [7]?
Answer: 0.023 µM

Question: And the half-life [8]?
Answer: 414 min

Question: And the EC50 [9]?
Answer: 4.55 µM

Question: And the AUC(0-inf) [10]?
Answer: 2410 ng·h/mL

Question: And the concentration at 12 h [11]?
Answer: > 0.1 µM

Question: And the IC50 [12]?
Answer: > 1 µM

Question: What about the EC50 [13] of the same molecule?
Answer: 0.68 µM

Question: What about the solubility [14] of the same molecule?
Answer: 928 µM (≈ 329 µg/mL)

Question: And the Vd [15]?
Answer: > 3 L/kg

Question: And the clearance [16]?
Answer: 6.67 mL/min/kg

Question: What about the Cmax [17] of the same molecule?
Answer: 1870 ng/mL

Question: And the Tmax [18]?
Answer: 15 min

Question: What about the IC50 [19] of the same molecule?
Answer: > 10 µM

Question: What about the concentration at 5 h [20] of the same molecule?
Answer: > 1 µM

Question: What about the half-life [21] of the same molecule?
Answer: 52.2 min

Question: What about the AUC(0-inf) [22] of the same molecule?
Answer: 610 ng·h/mL

Question: And the Activity [23]?
Answer: Non-toxic

Question: And the bioavailability [24]?
Answer: 30%

Question: And the bioavailability [25]?
Answer: 67%

Question: And the Tmax [26]?
Answer: 30 min

Question: What about the IC90 [27] of the same molecule?
Answer: 2 µM

Question: And the half-life [28]?
Answer: 84 min

Question: And the fraction unbound [29]?
Answer: 0.4

Question: What about the IC50 [30] of the same molecule?
Answer: 0.049 µM

Question: And the Activity [31]?
Answer: Non-toxic

Question: And the IC50 [32]?
Answer: 2 µM

Question: And the AUC(0-inf) [33]?
Answer: 11000 ng·h/mL

Question: What about the Cmax [34] of the same molecule?
Answer: 8960 ng/mL

Question: What about the inhibition in vivo at 200 mg/kg [35] of the same molecule?
Answer: > 50%

Question: What about the AUC(0-inf) [36] of the same molecule?
Answer: 14000 ng·h/mL

Question: And the half-life [37]?
Answer: 150 min

Question: What about the Papp at 20 min, 5 µM [38] of the same molecule?
Answer: 4.8 ×10⁻⁶ cm/s

Question: And the concentration at 4 h [39]?
Answer: 14.2 µM

Question: What about the Cmax [40] of the same molecule?
Answer: 1460 ng/mL

Question: And the IC50 [41]?
Answer: 40 µM

Question: What about the AUC(0-inf) [42] of the same molecule?
Answer: 6580 ng·h/mL

Question: And the remaining at 20 min, 5 µM [43]?
Answer: 12%

Question: And the Tmax [44]?
Answer: 15 min

Question: What about the Stability [45] of the same molecule?
Answer: 5%
